Columns and labels:
[1] = Dissolution profile, USP Apparatus 2 (Paddles), conditions of Table 1; assay type: physicochemical; conditions: sample containing 20 mg tadalafil, 1000 mL aqueous 0.15 wt % sodium lauryl sulfate and 6 g/L NaH2PO4, pH about 4.5, 37° C., 50 RPM, FIG. 2
Protocol: Dissolution profiles described herein were determined in a dissolution vessel using a USP Apparatus 2 (Paddles) under the conditions described in Table 1. Samples were analyzed on-line by a UV detector.
A sample of the dry powder P-00464, containing 20 mg tadalafil was collected and its dissolution profile determined according to the conditions in Table 1. The dissolution profile of P00464 was compared with the dissolution profiles of commercial versions of tadalafil tablets (Clalis® 20 mg) and active drug substance with a particle size distribution (PSD) such that the value of d(0.9)=˜(about) 50 μm. The results of dissolution testing are illustrated in FIG. 1.
Samples of P-00464 from Example 1 and samples of tadalafil active material with PSD of d(0.9)=˜(about) 4 μm (designated TAPI AK-2186) were prepared for dissolution testing as described below. The dissolution profiles of the samples were determined according to the conditions in Table 1. The samples were analyzed on-line by UV detection, and were compared. FIG. 2 illustrates the averages of the samples for each drug. […]

[2] = cited from earlier work
[3] = organic solvents such as methanol, ethanol, and acetone; 'is understood to be'; cited from earlier work

| SMILES | tadalafil dissolved within 40 minutes [1] | water solubility ([2]; 25° C., reported by U.S. Pat. No. 6,841,167) | solubility in water ([2]; 'is understood to be') | solubility in some organic solvents [3] |
| --- | --- | --- | --- | --- |
| CN1CC(=O)N2[C@H](c3ccc4c(c3)OCO4)c3[nH]c4ccccc4c3C[C@@H]2C1=O | less than 70 wt % |  |  |  |
| CN1CC(=O)N2[C@H](c3ccc4c(c3)OCO4)c3[nH]c4ccccc4c3C[C@@H]2C1=O [tadalafil, (6R-trans)-6-(1,3-benzodioxol-5-yl)-2,3,6,7,12,12a-hexahydro-2-methyl-pyrazino[1′,2′:1,6]pyrido[3,4-]indole-1,4-dione] |  | about 2 μg per milliliter | practically insoluble | only very slightly soluble |

From patent US20100099687A1, “TADALAFIL SOLID COMPOSITES” (Teva Pharmaceutical Industries Ltd., priority 2006, published 2010)
